Test results taken from ChEMBL document CHEMBL4828715, “Discovery, Structure-Activity Relationships, and In Vivo Evaluation of Novel Aryl Amides as Brain Penetrant Adaptor Protein 2-Associated Kinase 1 (AAK1) Inhibitors for the Treatment of Neuropathic Pain” (J Med Chem, 2021).

Assays:
[1] = target: AP2-associated protein kinase 1 (Homo sapiens, UniProt Q2M2I8); test: Inhibition of recombinant GST-Xa-tagged human AAK1 (30 to 330 residues) using 5-FAM-labelled Alla-KEEQSQITSQVTGQIGWR-NH2 peptide as substrate incubated for 3 hrs in presence of ATP by electrophoretic analysis
AP2-associated protein kinase 1, sequence (Q2M2I8 whole entry, the tested form may be a part): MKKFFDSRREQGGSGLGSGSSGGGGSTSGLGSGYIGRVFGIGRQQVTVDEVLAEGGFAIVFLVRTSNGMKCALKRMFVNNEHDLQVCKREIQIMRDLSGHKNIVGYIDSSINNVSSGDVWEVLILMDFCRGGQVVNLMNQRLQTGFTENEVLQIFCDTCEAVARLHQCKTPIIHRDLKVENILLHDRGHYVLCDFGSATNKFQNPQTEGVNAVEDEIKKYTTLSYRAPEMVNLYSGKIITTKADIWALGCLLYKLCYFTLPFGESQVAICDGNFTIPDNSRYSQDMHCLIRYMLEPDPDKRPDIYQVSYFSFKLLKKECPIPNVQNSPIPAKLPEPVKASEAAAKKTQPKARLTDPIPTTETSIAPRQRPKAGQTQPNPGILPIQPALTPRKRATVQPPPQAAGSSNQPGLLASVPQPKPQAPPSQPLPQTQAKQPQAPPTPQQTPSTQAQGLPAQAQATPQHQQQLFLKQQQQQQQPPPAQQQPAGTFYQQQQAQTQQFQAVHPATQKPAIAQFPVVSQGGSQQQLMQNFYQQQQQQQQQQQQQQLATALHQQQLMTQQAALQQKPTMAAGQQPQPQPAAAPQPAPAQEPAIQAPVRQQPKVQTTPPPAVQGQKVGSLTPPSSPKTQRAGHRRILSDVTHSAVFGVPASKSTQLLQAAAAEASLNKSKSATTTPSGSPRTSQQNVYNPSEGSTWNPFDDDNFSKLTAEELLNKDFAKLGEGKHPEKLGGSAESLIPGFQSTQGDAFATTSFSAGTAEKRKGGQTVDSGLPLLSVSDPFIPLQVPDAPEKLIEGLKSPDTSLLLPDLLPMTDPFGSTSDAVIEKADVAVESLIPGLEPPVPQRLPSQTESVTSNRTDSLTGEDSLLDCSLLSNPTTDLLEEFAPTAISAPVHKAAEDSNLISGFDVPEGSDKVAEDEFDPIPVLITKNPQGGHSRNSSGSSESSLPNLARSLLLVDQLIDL

[2] = Metabolic stability in human liver microsomes assessed as parent compound remaining at 0.5 uM incubated for 10 mins in presence of NADPH by LC-MS/MS analysis; assay type: ADME, Microsome; details: read-out: Stability
[3] = Metabolic stability in rat liver microsomes assessed as parent compound remaining at 0.5 uM incubated for 10 mins in presence of NADPH by LC-MS/MS analysis; assay type: ADME, Microsome; details: read-out: Stability
[4] = Metabolic stability in mouse liver microsomes assessed as parent compound remaining at 0.5 uM incubated for 10 mins in presence of NADPH by LC-MS/MS analysis; assay type: ADME, Microsome; details: read-out: Stability
[5] = Permeability of the compound across basolateral to apical membrane in human Caco-2 cells incubated for 2 hrs by LC-MS/MS analysis; assay type: ADME, cell-based; details: Caco-2, read-out: permeability
[6] = Permeability of the compound at pH 5.5 incubated for 4 hrs by PAMPA-based UV spectrophotometry; assay type: ADME; details: read-out: permeability
[7] = Permeability of the compound at pH 7.4 incubated for 4 hrs by PAMPA-based UV spectrophotometry; assay type: ADME; details: PAMPA, pH 7.4, read-out: permeability

In the case of COc1cc(NC(=O)[C@H]2NCCC[C@H]2C(C)C)ccc1-c1cnco1, the IC50 [1] is reported as 360 nM, the remaining at 10 min, 0.5 µM [2] is reported as 19% and the remaining at 10 min, 0.5 µM [3] is reported as 24%. The remaining at 10 min, 0.5 µM [4] was 1%.

Molecule CC(C)C[C@@H](N)C(=O)Nc1ccc(-c2cnco2)c(OC(F)(F)F)c1 has a remaining at 10 min, 0.5 µM [2] of 69%, a remaining at 10 min, 0.5 µM [3] of 79% and a remaining at 10 min, 0.5 µM [4] of 53%.

For CC(C)C[C@@H](N)C(=O)Nc1ccc(-c2ccncc2)cc1, the IC50 [1] was 15 nM, the remaining at 10 min, 0.5 µM [2] was 80% and the remaining at 10 min, 0.5 µM [3] was 75%. The remaining at 10 min, 0.5 µM [4] was 66%.

Molecule CC(C)C1CCCNC1C(=O)Nc1ccc(-c2ccncc2)cc1 (racemic) has an IC50 [1] of 17 nM, a remaining at 10 min, 0.5 µM [2] of 77% and a remaining at 10 min, 0.5 µM [3] of 60%. The remaining at 10 min, 0.5 µM [4] was 76%.

Molecule CC(C)C[C@@H](N)C(=O)Nc1ccc(-c2cnco2)c(F)c1 has an IC50 [1] of 43 nM, a remaining at 10 min, 0.5 µM [2] of 78% and a remaining at 10 min, 0.5 µM [3] of 68%. The remaining at 10 min, 0.5 µM [4] was 30%.

COc1cc(NC(=O)[C@H](N)CC(C)C)ccc1-c1ccnnc1 gave an IC50 [1] of 110 nM, a remaining at 10 min, 0.5 µM [2] of 99% and a remaining at 10 min, 0.5 µM [3] of 74%. For the same molecule, the remaining at 10 min, 0.5 µM [4] was 70%.

Molecule COc1cc(NC(=O)[C@H](N)CC(C)C)ccc1-c1ccnc(Cl)c1 has an IC50 [1] of 240 nM, a remaining at 10 min, 0.5 µM [2] of 73% and a remaining at 10 min, 0.5 µM [3] of 89%. The remaining at 10 min, 0.5 µM [4] was 74%.

COc1cc(NC(=O)[C@H](N)CC(C)(C)C)ccc1-c1cnco1 showed an IC50 [1] of 85 nM, a remaining at 10 min, 0.5 µM [3] of 76% and a remaining at 10 min, 0.5 µM [4] of 65%.

With COc1cc(NC(=O)CCC(C)C)ccc1-c1cnco1 the IC50 [1] was 80 nM, the remaining at 10 min, 0.5 µM [2] was 61% and the remaining at 10 min, 0.5 µM [3] was 46%. The remaining at 10 min, 0.5 µM [4] was 33%.

Work on C[C@H]1O[C@@H](O[C@H]2[C@@H](O)C[C@H](O[C@H]3[C@@H](O)C[C@H](O[C@H]4CC[C@@]5(C)[C@H](CC[C@@H]6[C@@H]5C[C@@H](O)[C@]5(C)[C@@H](C7=CC(=O)OC7)CC[C@]65O)C4)O[C@@H]3C)O[C@@H]2C)C[C@H](O)[C@@H]1O [DIGOXIN] yielded a Papp B→A at 2 h [5] of 10 ×10⁻⁶ cm/s.

For CC(C(=O)O)c1cccc(C(=O)c2ccccc2)c1 (configuration not stated) [KETOPROFEN], the Papp at 4 h [6] was 34.2 ×10⁻⁶ cm/s and the Papp at 4 h [7] was 1.1 ×10⁻⁶ cm/s.

Work on COc1cc(NC(=O)[C@H](N)[C@H](C)O)ccc1-c1cnco1 yielded an IC50 [1] of 410 nM, a remaining at 10 min, 0.5 µM [2] of 85% and a remaining at 10 min, 0.5 µM [3] of 77%. It also gave a remaining at 10 min, 0.5 µM [4] of 91%.

For COc1cc(NC(=O)[C@H](N)CC(C)C)ccc1-c1cncnc1, the IC50 [1] was 5700 nM.

COc1cc(NC(=O)C[C@@H](N)C(C)C)ccc1-c1cnco1 gave an IC50 [1] of 127 nM, a remaining at 10 min, 0.5 µM [2] of 82% and a remaining at 10 min, 0.5 µM [3] of 4%. It also gave a remaining at 10 min, 0.5 µM [4] of 7%.

Molecule CCCC[C@@H](N)C(=O)Nc1ccc(-c2cnco2)c(OC)c1 has an IC50 [1] of 65 nM, a remaining at 10 min, 0.5 µM [2] of 87% and a remaining at 10 min, 0.5 µM [3] of 76%. It also gave a remaining at 10 min, 0.5 µM [4] of 65%.

COc1cc(NC(=O)[C@H](N)CC(C)C)ccc1-c1ccnc(N)c1 showed an IC50 [1] of 150 nM, a remaining at 10 min, 0.5 µM [2] of 96% and a remaining at 10 min, 0.5 µM [3] of 89%. It also gave a remaining at 10 min, 0.5 µM [4] of 73%.

In the case of CC(C)C[C@@H](N)C(=O)Nc1ccc(-c2cnco2)c(C#N)c1, the IC50 [1] is reported as 72 nM, the remaining at 10 min, 0.5 µM [2] is reported as 64% and the remaining at 10 min, 0.5 µM [3] is reported as 50%. The remaining at 10 min, 0.5 µM [4] was 57%.

COc1cc(NC(=O)[C@H](N)CCC(C)C)ccc1-c1cnco1 showed an IC50 [1] of 71 nM, a remaining at 10 min, 0.5 µM [2] of 75% and a remaining at 10 min, 0.5 µM [3] of 62%. The remaining at 10 min, 0.5 µM [4] was 80%.

Work on COc1cc(N(C)C(=O)[C@H](N)CC(C)C)ccc1-c1cnco1 yielded an IC50 [1] of 12800 nM.

In the case of COc1cc(NC(=O)[C@@H](C)N)ccc1-c1cnco1, the IC50 [1] is reported as 1300 nM, the remaining at 10 min, 0.5 µM [2] is reported as 100% and the remaining at 10 min, 0.5 µM [3] is reported as 100%. For the same molecule, the remaining at 10 min, 0.5 µM [4] was 97%.

COc1cc(NC(=O)[C@H](N)CC(C)C)ccc1-n1cncn1 gave an IC50 [1] of 920 nM, a remaining at 10 min, 0.5 µM [2] of 79% and a remaining at 10 min, 0.5 µM [3] of 79%. The remaining at 10 min, 0.5 µM [4] was 87%.

COc1cc(NC(=O)[C@H](N)CC(C)C)ccc1-c1cncs1 showed an IC50 [1] of 190 nM, a remaining at 10 min, 0.5 µM [2] of 75% and a remaining at 10 min, 0.5 µM [3] of 76%. The remaining at 10 min, 0.5 µM [4] was 55%.

CNc1cc(-c2ccc(NC(=O)[C@H](N)CC(C)C)cc2OC)ccn1 showed an IC50 [1] of 450 nM, a remaining at 10 min, 0.5 µM [2] of 69% and a remaining at 10 min, 0.5 µM [3] of 22%. For the same molecule, the remaining at 10 min, 0.5 µM [4] was 24%.

COc1cc(NC(=O)[C@H](N)CC(C)C)ccc1-c1cccnc1 showed an IC50 [1] of 10200 nM.

Work on COc1cc(NC(=O)CC2CCCC2)ccc1-c1cnco1 yielded an IC50 [1] of 80 nM, a remaining at 10 min, 0.5 µM [2] of 64% and a remaining at 10 min, 0.5 µM [3] of 58%. It also gave a remaining at 10 min, 0.5 µM [4] of 46%.

COc1cc(NC(=O)[C@H](N)CC2CCCCC2)ccc1-c1cnco1 showed an IC50 [1] of 480 nM, a remaining at 10 min, 0.5 µM [2] of 68% and a remaining at 10 min, 0.5 µM [3] of 63%. The remaining at 10 min, 0.5 µM [4] was 78%.

In the case of COc1cc(NC(=O)[C@H](N)CC(C)C)ccc1-c1cn[nH]n1, the IC50 [1] is reported as 49 nM, the remaining at 10 min, 0.5 µM [2] is reported as 84% and the remaining at 10 min, 0.5 µM [3] is reported as 87%. For the same molecule, the remaining at 10 min, 0.5 µM [4] was 44%.
